Test results from PubChem BioAssay AID1845212 (Molecular Pharmacology Branch, DTP, NCI, 2023).

Tested on: NCI-H719 tumor spheroids, viability
Assay: Anticancer human tumor NCI-H719 cell line growth inhibition;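 also: spheroids exposed to compounds for seven days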;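 as to viability, T/C: percent viability relative to DMSO vehicle control as 100%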
Conditions: spheroids with HUVEC and MSC; for IC50: curve of first compound; for viability, T/C: stronger effect = lower value
From the text: Multicellular complex tumor spheroid response to DNA repair inhibitors in combination with DNA-damaging drugs
This study explores the anticancer activities of DNA-damaging drugs and inhibitors of DNA damage repair, both as single agents and in combinations. Complex tumor spheroids comprised of malignant cells, endothelial cells and mesenchymal stem cells served as an in vitro model for human solid tumors. This model system incorporates physiologically relevant features and patient-derived or established malignant cell lines with clinically relevant genetic alterations from many tumor types. Twenty-six patient-derived or established malignant cell lines were evaluated representing sarcoma, melanoma, small cell lung cancer (SCLC), non-small cell lung cancer (NSCLC), as well as bladder, ovarian and pancreatic cancers. The concentration ranges selected for each drug and investigational agent were based upon clinically achievable concentrations if the clinical Cmax of the agent was known.
Compounds. The drugs and compounds olaparib (NSC753686), talazoparib (NSC767125), berzosertib (NSC777718), elimusertib (NSC800525), nedisertib (NSC802822), VX-984 (NSC792969), AZD-1390 (NSC803789), temozolomide (NSC362856), topotecan (NSC609699), trabectedin (NSC813783), staurosporine (NSC755774), and gemcitabine (NSC613327) were obtained from the National Cancer Institute (NCI) Developmental Therapeutics Program Chemical Repository. The FDA-approved anticancer drug set is available from the Developmental Therapeutics Program at https://dtp.cancer.gov/organization/dscb/obtaining/available_plates.htm. […] The stock solutions were prepared in dimethyl sulfoxide (DMSO, Sigma-Aldrich, St. Louis, MO, cat. D2650) at 400-fold the tested concentration and stored at -70 degrees C. Prior to their use, the stock solutions were diluted in fresh medium and the final DMSO concentration in the assay was 0.25% (v/v). All drugs and investigational agents were tested over a range starting from a high concentration at or near the clinical Cmax and decreasing in half-log increments. If the clinical Cmax for an agent had not been determined, the highest concentration tested was 10 microM.
Cell Lines. The patient-derived cancer cell (PDC) lines: 156681-154-R-J1-PDC, 283228-195-R-J1-PDC, 287954-098-R-J1-PDC, 292921-168-R-J2-PDC, 349418-098-R-PDC, 425362-245-T-J1-PDC, 556581-035-R-J1-PDC, and BL0293-F563-PDC were received from the NCI Patient-Derived Models Repository (PDMR, https://pdmr.cancer.gov). The established cell lines HS-SY-2 (RRID:CVCL_8719), MPNST, and SYO-1 (RRID:CVCL_7146) were obtained from the Sloan Kettering Institute. The alveolar soft parts sarcoma cell line ASPS-1 (RRID:CVCL_S738) was established at the NCI and grown from internal seed stocks. The following established cell lines were purchased from the American Type Culture Collection (ATCC, Manassas, VA): G-401 (ATCC, cat. CRL-1441, RRID:CVCL_0270), SW982 (ATCC, cat. HTB-93, RRID:CVCL_1734), VA-ES-BJ (ATCC, cat. CRL-2138, RRID:CVCL_1785), NCI-H719 (ATCC, cat. CRL-5837, RRID:CVCL_1582), NCI-H196 (ATCC, cat. CRL-5823, RRID:CVCL_1509), NCI-H841 (ATCC, cat. CRL-5845, RRID:CVCL_1595), NCI-H1618 (ATCC, cat. CRL-5879, RRID:CVCL_1480), NCI-H1876 (ATCC, cat. CRL-5902, RRID:CVCL_1503), DMS 114 (ATCC, cat. CRL-2066; RRID:CVCL_1174), NCI-H211 (ATCC, cat. CRL-5824; RRID:CVCL_1529), and SW 1271 (ATCC, cat. CRL-2177, RRID:CVCL_1716). The small cell lung cancer cell line COR-L88 was purchased from Sigma-Aldrich (cat. 92031917-1VL, RRID:CVCL_1141). The non-small cell lung cancer cell lines NCI-H226 (RRID:CVCL_1544) and NCI-H322M (RRID:CVCL_1557) were established at the NCI and grown from internal seed stocks. Pooled donor human umbilical vein endothelial cells (HUVEC, Lonza, cat. CC-2519) and human mesenchymal stem cells (hMSC, Lonza, cat. PT-2501) were purchased from Lonza (Walkersville, MD).
Cell Culture. All cells were maintained in an incubator at 37 degrees C and 5% CO2 with 95% humidity. […]

SMILES: [2H]c1nc(C)nc([2H])c1-c1cc(NC[C@@H](C)c2cccc3c(C(=O)NC)ccnc23)ncn1 + COc1cc2c(cc1O)CCNC21CSC2c3c(OC(C)=O)c(C)c4c(c3C(COC1=O)N1C(O)C3Cc5cc(C)c(OC)c(O)c5C(C21)N3C)OCO4
- IC50 (second compound 30 pM): > 10 µM
- IC50 (second compound 94.9 pM): < 0.0316 µM
- IC50 (second compound 0.0003 µM): < 0.0316 µM
- IC50 (second compound 0.000949 µM): < 0.0316 µM
- IC50 (second compound 0.003 µM): < 0.0316 µM
- viability, T/C (second compound 30 pM, first compound 0.0316 µM): 89.5%
- viability, T/C (second compound 30 pM, first compound 0.1 µM): 82.5%
- viability, T/C (second compound 30 pM, first compound 0.316 µM): 71.9%
- viability, T/C (second compound 30 pM, first compound 1 µM): 66.6%
- viability, T/C (second compound 30 pM, first compound 3.16 µM): 76.8%
- viability, T/C (second compound 30 pM, first compound 10 µM): 79.7%
- viability, T/C (second compound 94.9 pM, first compound 0.0316 µM): 20.4%
- viability, T/C (second compound 94.9 pM, first compound 0.1 µM): 32.3%
- viability, T/C (second compound 94.9 pM, first compound 0.316 µM): 38.6%
- viability, T/C (second compound 94.9 pM, first compound 1 µM): 28.9%
- viability, T/C (second compound 94.9 pM, first compound 3.16 µM): 22.1%
- viability, T/C (second compound 94.9 pM, first compound 10 µM): 29.2%
- viability, T/C (second compound 0.0003 µM, first compound 0.0316 µM): 6.45%
- viability, T/C (second compound 0.0003 µM, first compound 0.1 µM): 6.02%
- viability, T/C (second compound 0.0003 µM, first compound 0.316 µM): 6.77%
- viability, T/C (second compound 0.0003 µM, first compound 1 µM): 8.36%
- viability, T/C (second compound 0.0003 µM, first compound 3.16 µM): 6.88%
- viability, T/C (second compound 0.0003 µM, first compound 10 µM): 7.14%
- viability, T/C (second compound 0.000949 µM, first compound 0.0316 µM): 7.69%
- viability, T/C (second compound 0.000949 µM, first compound 0.1 µM): 7.59%
- viability, T/C (second compound 0.000949 µM, first compound 0.316 µM): 6.74%
- viability, T/C (second compound 0.000949 µM, first compound 1 µM): 6.63%
- viability, T/C (second compound 0.000949 µM, first compound 3.16 µM): 6.53%
- viability, T/C (second compound 0.000949 µM, first compound 10 µM): 7.49%
- viability, T/C (second compound 0.003 µM, first compound 0.0316 µM): 0.31%
- viability, T/C (second compound 0.003 µM, first compound 0.1 µM): 0.58%
- viability, T/C (second compound 0.003 µM, first compound 0.316 µM): 0.16%
- viability, T/C (second compound 0.003 µM, first compound 1 µM): 0.86%
- viability, T/C (second compound 0.003 µM, first compound 3.16 µM): 0.13%
- viability, T/C (second compound 0.003 µM, first compound 10 µM): 0.24%
